The compounds below were run on A375 cells (assay: Tumor cell line proliferation assay (CellTiter Glo), A375). Conditions: Homo sapiens, A-375, 96 h, read-out: A375 (V599E) Cell Proliferation IC50.
Format: cell-based
Compound `Cc1cc(-c2n[nH]c3cc4c(cc23)CN([C@@H]2CCCN(Cc3sccc3F)C2)C(=O)N4)ccn1` [Example 291] has an IC50 of no more than 250 nM. Work on `Cc1cc(-c2n[nH]c3cc4c(cc23)CN(Cc2ccccc2)C(=O)N4)cc(C)n1` [Example 229] yielded an IC50 of 250 to 1000 nM. For `Cc1cc(-c2n[nH]c3cc4c(cc23)CN([C@@H]2CCN(c3ccc(F)cn3)C2)C(=O)N4)ccn1` [Example 257], the IC50 was greater than 1000 nM. `Cc1cc(-c2n[nH]c3cc4c(cc23)CN(CC2CCCCC2)C(=O)N4)ccn1` [Example 213] gave an IC50 of no more than 250 nM. For `Cc1cc(-c2n[nH]c3cc4c(cc23)CN([C@@H]2CCCN(Cc3cc(F)ccc3F)C2)C(=O)N4)ccn1` [Example 187], the IC50 was no more than 250 nM. For `Cc1cc(-c2n[nH]c3cc4[nH]c(=O)c(C5CCCN(Cc6ccccc6)C5)cc4cc23)ccn1` (centres unmarked) [Example 332], the IC50 was no more than 250 nM. Compound `COc1cc(-c2n[nH]c3cc4c(cc23)CN([C@@H]2CCCN(Cc3ccccc3)C2)C(=O)N4)ccn1` [Example 270] has an IC50 of no more than 250 nM. `Cc1cc(-c2n[nH]c3cc4[nH]c(=O)c(C(CO)c5ccccc5)cc4cc23)ccn1` (centres unmarked) [Example 328] was tested, and the IC50 was 250 to 1000 nM.

The compounds below were run on phospho-p90 RSK (RSK1 Thr359/Ser363) in A375 (Braf V600E) cells (assay: Phospho-p90 RSK ELISA using A375 (Braf V600E) cells). Conditions: Homo sapiens, A-375, 2 hours compound treatment, read-out: Cellular Phospho-p90RSK IC50.
Format: cell-based
Method: In preparation for the assay, an ELISA plate with the pre-coated goat anti-mouse antibody (Thermo Scientific) was treated with a mouse anti-human RSK1 antibody (monoclonal, Invitrogen) at 1:800 dilution (150 ng/well) in PBS, and the plate was placed on a plate shaker at 4° C. overnight. […] After two […] of the compound treatment, the supernatant was removed from the cell plate, and cells were lysed in 100 μl per well of cell lysis buffer (Cell Signaling Technologies) containing phosphatase and protease inhibitors (Cell Signaling Technologies) on a plate shaker at 4° C. for 20 minutes. The ELISA plate was washed four times with ELISA wash buffer (Thermo Scientific) prior to addition of 100 μL cell lysate. The lysate was incubated on the ELISA plate with gentle shaking at room temperature for 2 hours. The contents of the wells were removed, and the ELISA plate was washed four times with wash buffer, and incubated with 100 μL per well of anti-phospho-RSK1 (Thr359/Ser363) rabbit monoclonal antibody (Millipore) at dilution of 1:1000 in StartingBlock buffer (Thermo Scientific) on a plate shaker at room temperature for 1 hour. The contents of the wells were removed, the ELISA plate was washed four times with wash buffer, and was incubated with 100 μL per well of goat anti-rabbit HRP (Thermo Scientific) at dilution of 1:3000 in StartingBlock buffer (Thermo Scientific) on a plate shaker at room temperature for 1 hour. The contents of the wells were removed, the ELISA plate was washed four times with wash buffer, and then incubated with 100 μL per well of TMB substrate solution (Thermo Scientific) on a plate shaker at room temperature for 20 minutes. Finally, 100 μL of TMB stop solution (Thermo Scientific) was added to each well and the absorbance is measured at 450 nm on a Tecan plate reader.
`Cc1cc(-c2n[nH]c3cc4c(cc23)CN([C@@H]2CCCN(Cc3sccc3F)C2)C(=O)N4)ccn1` [Example 291] was tested, and the IC50 was no more than 250 nM. In the case of `Cc1cc(-c2n[nH]c3cc4c(cc23)CN(Cc2ccccc2)C(=O)N4)cc(C)n1` [Example 229], the IC50 is reported as no more than 250 nM. `Cc1cc(-c2n[nH]c3cc4c(cc23)CN([C@@H]2CCN(c3ccc(F)cn3)C2)C(=O)N4)ccn1` [Example 257] was tested, and the IC50 was 250 to 1000 nM. Compound `Cc1cc(-c2n[nH]c3cc4c(cc23)CN(CC2CCCCC2)C(=O)N4)ccn1` [Example 213] has an IC50 of no more than 250 nM. Compound `Cc1cc(-c2n[nH]c3cc4c(cc23)CN([C@@H]2CCCN(Cc3cc(F)ccc3F)C2)C(=O)N4)ccn1` [Example 187] has an IC50 of no more than 250 nM. In the case of `Cc1cc(-c2n[nH]c3cc4[nH]c(=O)c(C5CCCN(Cc6ccccc6)C5)cc4cc23)ccn1` (centres unmarked) [Example 332], the IC50 is reported as no more than 250 nM. In the case of `COc1cc(-c2n[nH]c3cc4c(cc23)CN([C@@H]2CCCN(Cc3ccccc3)C2)C(=O)N4)ccn1` [Example 270], the IC50 is reported as no more than 250 nM. `Cc1cc(-c2n[nH]c3cc4[nH]c(=O)c(C(CO)c5ccccc5)cc4cc23)ccn1` (centres unmarked) [Example 328] gave an IC50 of no more than 250 nM. With `Cc1cc(-c2n[nH]c3cc4c(cc23)CN([C@@H]2CN(C3CCOCC3)C[C@H]2c2ccccc2)C(=O)N4)ccn1` (mixture of isomers) [Example 359] the IC50 was 250 to 1000 nM. With `Cc1cc(-c2n[nH]c3cc4c(cc23)CN([C@@H]2CN(CC(F)F)C[C@H]2c2ccccc2)C(=O)N4)cc(C)n1` [Example 386] the IC50 was no more than 250 nM. In the case of `Cc1cc(-c2n[nH]c3cc4c(cc23)CN([C@@H]2CCCN(CC3(C)CC3)C2)C(=O)N4)ccn1` [Example 182], the IC50 is reported as 250 to 1000 nM. In the case of `Cn1cc(-c2n[nH]c3cc4c(cc23)CN([C@@H]2CCCN(Cc3cccs3)C2)C(=O)N4)cn1` [Example 298], the IC50 is reported as no more than 250 nM. Work on `COc1ccc(-c2n[nH]c3cc4c(cc23)CN(Cc2ccc(F)cc2)C(=O)N4)cn1` [Example 76] yielded an IC50 of no more than 250 nM. `O=C1Nc2cc3[nH]nc(-c4cn[nH]c4)c3cc2CN1Cc1ccc(F)c(Cl)c1` [Example 48] was tested, and the IC50 was 250 to 1000 nM. In the case of `Cc1ncc(-c2n[nH]c3cc4c(cc23)CN(Cc2cccc(Cl)c2)C(=O)N4)cn1` [Example 90], the IC50 is reported as no more than 250 nM. Compound `O=C1Nc2cc3[nH]nc(-c4ccnnc4)c3cc2CN1[C@H](CO)c1cccc(Cl)c1` [Example 117] has an IC50 greater than 1000 nM. Work on `Cc1cc(-c2n[nH]c3cc4c(cc23)CN([C@@H]2CCC[C@@H](NCc3ccccc3)C2)C(=O)N4)ccn1` [Example 313] yielded an IC50 of 250 to 1000 nM. For `Cc1cc(-c2n[nH]c3cc4[nH]c(=O)c(C5CCCN(Cc6ccccc6)C5)cc4cc23)cc(C)n1` (centres unmarked) [Example 360], the IC50 was 250 to 1000 nM. In the case of `Cn1cc(-c2n[nH]c3cc4c(cc23)CN([C@@H]2CCN(CC(F)(F)F)C2)C(=O)N4)cn1` [Example 259], the IC50 is reported as no more than 250 nM. With `Cn1cc(-c2n[nH]c3cc4c(cc23)CN([C@@H]2CN(CC(F)(F)F)C[C@H]2c2ccccc2)C(=O)N4)ccc1=O` [Example 346] the IC50 was no more than 250 nM. Work on `Cc1cc(-c2n[nH]c3cc4c(cc23)CN([C@H]2CN(C)C[C@@H]2c2ccccc2)C(=O)N4)cc(C)n1` [Example 307] yielded an IC50 of 250 to 1000 nM. `Cc1cc(-c2n[nH]c3cc4c(cc23)CN(CCN2CCOCC2)C(=O)N4)ccn1` [Example 51] gave an IC50 greater than 1000 nM. For `O=C1Nc2cc3[nH]nc(-c4ccc(=O)[nH]c4)c3cc2CN1Cc1cccc(Cl)c1` [Example 61], the IC50 was greater than 1000 nM. `COc1ccc(-c2n[nH]c3cc4c(cc23)CN([C@@H]2CCN(CC(F)(F)F)C2)C(=O)N4)cn1` [Example 277] gave an IC50 of no more than 250 nM. `Cc1cc(-c2n[nH]c3cc4c(cc23)CN(C2CN(Cc3ccccc3)C2)C(=O)N4)ccn1` [Example 191] showed an IC50 of 250 to 1000 nM. For `Cc1cc(-c2n[nH]c3cc4c(cc23)CN([C@@H]2CCCN(CC(=O)C(C)(C)C)C2)C(=O)N4)ccn1` [Example 203], the IC50 was 250 to 1000 nM. With `O=C1Nc2cc3[nH]nc(-c4cn[nH]c4)c3cc2CN1Cc1cccc(Cl)c1` [Example 60] the IC50 was greater than 1000 nM. Work on `O=C1Nc2cc3[nH]nc(-c4ccnnc4)c3cc2CN1[C@@H]1CCCN(Cc2ccccc2F)C1` [Example 121] yielded an IC50 of no more than 250 nM. With `Cc1cc(-c2n[nH]c3cc4c(cc23)CN(Cc2ccccc2)C(=O)N4)ccn1` [Example 372] the IC50 was no more than 250 nM. Compound `Cc1ncccc1-c1n[nH]c2cc3[nH]c(=O)c(C(C)c4ccccc4)cc3cc12` (centres unmarked) [Example 335] has an IC50 greater than 1000 nM. In the case of `Cc1cc(-c2n[nH]c3cc4c(cc23)CN(C(C)C2CCOCC2)C(=O)N4)ccn1` (centres unmarked) [Example 262], the IC50 is reported as no more than 250 nM. `Cc1cc(-c2n[nH]c3cc4c(cc23)CN([C@@H]2CCCN(Cc3ccccn3)C2)C(=O)N4)ccn1` [Example 171] was tested, and the IC50 was greater than 1000 nM. `O=C1Nc2cc3[nH]nc(-c4cccnc4)c3cc2CN1Cc1cccc(Cl)c1` [Example 57] gave an IC50 of no more than 250 nM. For `Cc1cc(-c2n[nH]c3cc4c(cc23)CN([C@@H]2CN(CCC(F)(F)F)C[C@H]2c2ccccc2)C(=O)N4)ccn1` (mixture of isomers) [Example 387], the IC50 was 250 to 1000 nM. With `COc1ccc(-c2n[nH]c3cc4c(cc23)CN(Cc2cccc(Cl)c2)C(=O)N4)cn1` [Example 75] the IC50 was no more than 250 nM. `Cc1cc(-c2n[nH]c3cc4c(cc23)CN(CCc2cccc(Cl)c2)C(=O)N4)ccn1` [Example 50] was tested, and the IC50 was no more than 250 nM. For `Cc1cc(-c2n[nH]c3cc4c(cc23)CN([C@@H]2CN(Cc3ccccc3)CC(F)(F)C2)C(=O)N4)ccn1` [Example 263], the IC50 was greater than 1000 nM. For `Cc1cc(-c2n[nH]c3cc4c(cc23)CN(C2CCOC(C)(C)C2)C(=O)N4)ccn1` (centres unmarked) [Example 219], the IC50 was 250 to 1000 nM. With `O=C1Nc2cc3[nH]nc(-c4ccnnc4)c3cc2CN1Cc1cc(F)cc(F)c1` [Example 127] the IC50 was 250 to 1000 nM. With `Cc1cc(-c2n[nH]c3cc4[nH]c(=O)c(C5CCCC5)cc4cc23)ccn1` [Example 289] the IC50 was 250 to 1000 nM. `Cc1cc(-c2n[nH]c3cc4c(cc23)CN(CCN)C(=O)N4)ccn1` [Example 83] showed an IC50 greater than 1000 nM. `Cc1cc(-c2n[nH]c3cc4c(cc23)CN([C@@H]2CCCN(CCc3cccc(Cl)c3)C2)C(=O)N4)ccn1` [Example 164] gave an IC50 greater than 1000 nM. With `CC(c1ccccc1)c1cc2cc3c(-c4ccnc(N)c4)n[nH]c3cc2[nH]c1=O` (centres unmarked) [Example 344] the IC50 was no more than 250 nM. Work on `Cc1cc(-c2n[nH]c3cc4c(cc23)CN(CCO)C(=O)N4)ccn1` [Example 43] yielded an IC50 greater than 1000 nM. With `CCN1CC[C@@H](N2Cc3cc4c(-c5ccnc(C)c5)n[nH]c4cc3NC2=O)C1` [Example 256] the IC50 was greater than 1000 nM. For `Cc1cc(-c2n[nH]c3cc4c(cc23)CN([C@@H]2CCCN(C3CCC3)C2)C(=O)N4)ccn1` [Example 210], the IC50 was greater than 1000 nM. `Cc1cc(-c2n[nH]c3cc4c(cc23)CN([C@@H]2CCCN(Cc3cc(C(C)(C)C)no3)C2)C(=O)N4)ccn1` [Example 186] gave an IC50 of 250 to 1000 nM. `Cn1nccc1-c1n[nH]c2cc3c(cc12)CN([C@@H]1CN(CC(F)(F)F)C[C@H]1c1ccccc1)C(=O)N3` [Example 350] gave an IC50 greater than 1000 nM. Compound `Cc1cc(-c2n[nH]c3cc4c(cc23)CN([C@@H]2CCCN(C3CCCCC3)C2)C(=O)N4)ccn1` [Example 194] has an IC50 of 250 to 1000 nM. `Cc1cc(-c2n[nH]c3cc4c(cc23)CN(C(C)C2CCCC2)C(=O)N4)ccn1` (centres unmarked) [Example 294] was tested, and the IC50 was no more than 250 nM. `Cc1cc(-c2n[nH]c3cc4c(cc23)CN([C@@H]2CCC[C@H](NCc3ccccc3)C2)C(=O)N4)ccn1` [Example 177] showed an IC50 of 250 to 1000 nM.
